Source: patent US20060194769A1, “Small molecules that reduce fungal growth” (University of Vermont and State Agricultural College, priority 2005, published 2006)

Assays:
Candida albicans = test: Quantification of inhibition of the budded-to-hyphal-form transition and synergy assay in 10% serum media; format: cell-based; conditions: 37° C., synergy assay: two molecules (100 μM) added together, normalized to % hyphae formed when no molecule was added
Procedure: Cultures of Candida albicans were grown as described in Toenjes K. A. et al. (Antimicrobial Agents and Chemotherapy, 49(3):963-972, 2005). To induce hyphal growth, stationary-phase cultures were diluted into 5 ml of either YPD (1% yeast extract, 2% peptone, and 2% dextrose) plus 10% (vol/vol) fetal calf serum, Spider medium, Lee's medium (Lee, K. et al., Sabouraudia, 13:148-153, 1975), or M199 pH 8 medium (Sigma-Aldrich, St. Louis, Mo.) and grown at 37° C. with shaking at 250 rpm.
Quantification of inhibition of the budded-to-hyphal-form transition was accomplished by counting the numbers of individual budded cells versus the number of hyphae in the population. More than 100 cells were counted for each assay in duplicate and all assays were repeated four times. Individual hyphae were counted as one cell, although the hyphae usually consisted of multiple individual hyphal cells. The percentage of hyphae reported was normalized to the percentage of hyphae formed when no molecule was added.
For the synergy assay, two different molecules (100 μM) were added together and the assay was performed in 10% serum media to induce hyphal formation.

tumor = conditions: cited from earlier work

Compound | % hyphae in 10% serum (Candida albicans) [%] | anti-tumor activity (tumor)
CN1CCN(C2=Nc3cc(Cl)ccc3Nc3ccccc32)CC1 [Clozapine, 8-Chloro-11-(4-methyl-1-piperazinyl)-5H-dibenzo[b,e][1,4]-diazepine] | 33 | 
O=C(Nc1ccccc1)c1cc([N+](=O)[O-])ccc1Cl [GW9662, 2-Chloro-5-nitro-N-phenylbenzamide] | 59 | 
CCOC(=O)C1=C(N)Oc2ccc(Br)cc2C1C(C#N)C(=O)OCC (centres unmarked) [HA14-1, Ethyl[2-amino-6-bromo-4-(1-cyano-2-ethoxy-2-oxoethyl)]-4H-chromene-3-carboxylate] | 34 | 
CCC(C)C(COC(Cc1ccccc1)C(=O)NC(CCS(C)(=O)=O)C(=O)OC(C)C)NCC(N)CS [L-744,832, (2S)-2-[[(2S)-2-[(2S,3S)-2-[(2R)-2-Amino-3-mercaptopropyl]amino]-3-methylpentyl]oxy]-1-oxo-3-phenylpropyl]amino]-4-(methylsulfonyl)-butanoic Acid 1-Methylethyl Ester] |  | potent anti-tumor activity
OCc1ccc(-c2nn(Cc3ccccc3)c3ccccc23)o1 [YC-1, 3-(5′-Hydroxymethyl-2′-furyl)-1-benzylindazole] |  | potent anti-tumor activity
